Active and inactive are the calls of the source.
Key:
Danio rerio = experiment: In Vivo Angiogenesis Dose-Response Confirmation. [Related pubchem assays: 732 (Assay preceding this confirmatory assay.)]; assay type: functional, organism-based
[1] = Luminescence Cell-Based Dose Confirmation HTS to Identify Inhibitors of Platelet Dense Granule Release. [Related pubchem assays: 1663 (Primary HTS), 1678 (Summary of Project)]; assay type: functional
[2] = biological target: Luciferin 4-monooxygenase (Photinus pyralis, UniProt P08659); experiment: firefly luciferase enzyme inhibitors, dose response, biochemical, luminescence (AID 1891)
Luciferin 4-monooxygenase, sequence (P08659 whole entry): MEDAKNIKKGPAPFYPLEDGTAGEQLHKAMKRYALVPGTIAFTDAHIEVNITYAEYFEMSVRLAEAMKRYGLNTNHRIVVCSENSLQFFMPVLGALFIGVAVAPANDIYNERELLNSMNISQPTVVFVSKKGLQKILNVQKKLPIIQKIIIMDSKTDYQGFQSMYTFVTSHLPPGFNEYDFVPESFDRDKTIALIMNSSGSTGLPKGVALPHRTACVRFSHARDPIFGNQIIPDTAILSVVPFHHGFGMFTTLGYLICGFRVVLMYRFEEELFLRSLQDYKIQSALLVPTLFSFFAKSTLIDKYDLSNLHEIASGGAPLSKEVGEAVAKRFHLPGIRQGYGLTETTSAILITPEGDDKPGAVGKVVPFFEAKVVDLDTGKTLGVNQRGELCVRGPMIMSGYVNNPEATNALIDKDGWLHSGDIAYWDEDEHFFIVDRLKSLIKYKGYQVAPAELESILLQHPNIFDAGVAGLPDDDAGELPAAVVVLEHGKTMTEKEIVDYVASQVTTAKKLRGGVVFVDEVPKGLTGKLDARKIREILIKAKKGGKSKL

[3] = Fluorescence Cell-Based Dose Response to Identify Inhibitors of Thrombin Receptor-Activating Peptide SFLLRN-Mediated P-Selectin Induction on Platelets. [Related pubchem assays: 1663 (Primary HTS), 1889 (retest at dose ), 1891 (counterscreen), 1678 (Project Summary)]; assay type: functional
Mucolipin-3 [4] = biological target: T1, Mucolipin-3 (Homo sapiens, UniProt Q8TDD5); experiment: TRPML3 agonist potency, dose response, cell-based, calcium fluorescence (AID 2510); assay type: functional
T1 sequence (Q8TDD5 whole entry): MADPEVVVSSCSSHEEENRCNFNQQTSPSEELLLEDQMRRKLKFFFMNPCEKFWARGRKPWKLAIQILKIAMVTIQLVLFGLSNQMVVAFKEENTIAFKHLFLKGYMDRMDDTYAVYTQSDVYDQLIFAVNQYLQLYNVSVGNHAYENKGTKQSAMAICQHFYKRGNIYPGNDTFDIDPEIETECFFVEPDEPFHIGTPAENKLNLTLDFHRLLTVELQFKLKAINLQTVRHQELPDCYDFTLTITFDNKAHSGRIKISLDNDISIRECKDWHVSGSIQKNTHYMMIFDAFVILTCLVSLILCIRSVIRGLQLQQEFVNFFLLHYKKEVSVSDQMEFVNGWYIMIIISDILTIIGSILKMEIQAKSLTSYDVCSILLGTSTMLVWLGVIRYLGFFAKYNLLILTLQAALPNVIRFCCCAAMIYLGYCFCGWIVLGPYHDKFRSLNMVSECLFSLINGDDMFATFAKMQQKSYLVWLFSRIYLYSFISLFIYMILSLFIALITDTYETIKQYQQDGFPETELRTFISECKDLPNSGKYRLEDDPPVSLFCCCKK

Mucolipin-3 [5] = biological target: T1, Mucolipin-3; experiment: Dose response cell-based high-throughput screening assay for agonists of the transient receptor potential channel ML3 (TRPML3). [Related pubchem assays: 1526, 1424, 1448 ]; assay type: functional
Ion channel NompC [6] = biological target: T2, Ion channel NompC (Danio rerio, UniProt Q7T1G6); experiment: Late stage counterscreen for the probe development effort to identify selective agonists of the Transient Receptor Potential Channels 3 (TRPML3): fluorescence-based cell-based dose response assay for TRPN1 agonists.; assay type: functional
T2 sequence (Q7T1G6 whole entry): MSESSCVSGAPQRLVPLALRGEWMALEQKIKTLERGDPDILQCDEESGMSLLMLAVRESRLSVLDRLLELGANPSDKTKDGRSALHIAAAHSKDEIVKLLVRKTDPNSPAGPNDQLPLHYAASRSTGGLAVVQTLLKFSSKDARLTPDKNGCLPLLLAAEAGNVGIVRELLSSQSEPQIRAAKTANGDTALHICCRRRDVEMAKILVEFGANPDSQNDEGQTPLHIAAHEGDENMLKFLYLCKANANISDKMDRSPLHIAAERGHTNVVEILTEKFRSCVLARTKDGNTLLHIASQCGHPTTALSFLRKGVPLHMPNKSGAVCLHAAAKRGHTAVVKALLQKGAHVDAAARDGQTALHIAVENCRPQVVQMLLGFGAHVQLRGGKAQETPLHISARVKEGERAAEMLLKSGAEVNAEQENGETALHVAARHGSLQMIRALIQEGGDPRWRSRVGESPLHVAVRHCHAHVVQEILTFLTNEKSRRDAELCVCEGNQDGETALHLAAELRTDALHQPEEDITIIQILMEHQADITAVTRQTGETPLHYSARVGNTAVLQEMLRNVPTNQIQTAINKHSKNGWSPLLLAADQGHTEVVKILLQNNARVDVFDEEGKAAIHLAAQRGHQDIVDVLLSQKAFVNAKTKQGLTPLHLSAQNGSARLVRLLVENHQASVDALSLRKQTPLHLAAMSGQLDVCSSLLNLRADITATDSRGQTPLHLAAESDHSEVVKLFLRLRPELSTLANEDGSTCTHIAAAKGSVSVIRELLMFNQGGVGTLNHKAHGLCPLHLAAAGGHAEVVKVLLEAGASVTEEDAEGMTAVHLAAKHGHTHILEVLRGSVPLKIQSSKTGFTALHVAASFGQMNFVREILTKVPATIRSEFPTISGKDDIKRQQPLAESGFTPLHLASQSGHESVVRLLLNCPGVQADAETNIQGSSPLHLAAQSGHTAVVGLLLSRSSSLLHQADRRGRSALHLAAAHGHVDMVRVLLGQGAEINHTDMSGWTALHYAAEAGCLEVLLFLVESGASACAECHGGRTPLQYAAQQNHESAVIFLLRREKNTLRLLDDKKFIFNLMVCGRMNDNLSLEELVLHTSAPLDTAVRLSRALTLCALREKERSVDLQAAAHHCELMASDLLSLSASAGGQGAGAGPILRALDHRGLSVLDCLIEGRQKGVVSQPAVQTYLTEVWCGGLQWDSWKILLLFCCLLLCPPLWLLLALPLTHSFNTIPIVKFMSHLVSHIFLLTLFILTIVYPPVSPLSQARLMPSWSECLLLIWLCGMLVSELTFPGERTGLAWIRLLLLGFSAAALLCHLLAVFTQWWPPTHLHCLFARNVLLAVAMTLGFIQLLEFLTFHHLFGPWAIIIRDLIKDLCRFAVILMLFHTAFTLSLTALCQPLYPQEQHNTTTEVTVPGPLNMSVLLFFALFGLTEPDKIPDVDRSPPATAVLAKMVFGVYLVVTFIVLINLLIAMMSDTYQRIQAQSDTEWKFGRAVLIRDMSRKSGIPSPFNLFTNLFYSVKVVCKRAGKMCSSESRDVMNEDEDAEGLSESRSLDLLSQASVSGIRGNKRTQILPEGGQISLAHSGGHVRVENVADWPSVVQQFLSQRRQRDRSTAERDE

Ion channel NompC [7] = biological target: T2, Ion channel NompC; experiment: Fluorescence counterscreen assay for TRPML3 agonists: dose response cell-based high-throughput screening assay to identify agonists of the transient receptor potential channel N1 (TRPN1). [Related pubchem assays: 1526, 1424, 1448 ]; assay type: functional
[8] = HeLa cell cytotoxicity, dose response, cytotoxicity control for MgcRacGAP inhibitor project (AID 624300); assay type: functional
[9] = biological target: T3, Rac GTPase-activating protein 1 (Homo sapiens, UniProt Q9H0H5); experiment: MgcRacGAP GTPase-activating activity inhibitors, confirmation, biochemical, ADP Hunter fluorescence, primary and confirmatory (AID 624330); assay type: functional
T3 sequence (Q9H0H5 whole entry): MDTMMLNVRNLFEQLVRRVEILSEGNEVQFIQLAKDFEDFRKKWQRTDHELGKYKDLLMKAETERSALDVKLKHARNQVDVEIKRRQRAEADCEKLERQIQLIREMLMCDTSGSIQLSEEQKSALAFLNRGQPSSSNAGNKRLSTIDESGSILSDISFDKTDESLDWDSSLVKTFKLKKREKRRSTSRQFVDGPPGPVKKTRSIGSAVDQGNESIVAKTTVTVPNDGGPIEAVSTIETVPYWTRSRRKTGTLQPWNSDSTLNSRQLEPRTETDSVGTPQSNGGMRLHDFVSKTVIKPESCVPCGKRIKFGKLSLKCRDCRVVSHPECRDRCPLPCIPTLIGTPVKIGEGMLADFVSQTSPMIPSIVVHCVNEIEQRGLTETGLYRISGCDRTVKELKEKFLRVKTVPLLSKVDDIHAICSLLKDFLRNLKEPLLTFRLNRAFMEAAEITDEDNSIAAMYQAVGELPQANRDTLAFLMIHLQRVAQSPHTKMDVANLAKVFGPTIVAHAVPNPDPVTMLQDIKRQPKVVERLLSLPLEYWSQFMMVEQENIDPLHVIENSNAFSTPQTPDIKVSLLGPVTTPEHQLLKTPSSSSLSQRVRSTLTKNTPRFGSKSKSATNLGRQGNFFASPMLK

[10] = human group III sPLA2 inhibitors, dose response, biochemical, QFRET, IC50 (AID 743457);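 also: green fluorescence rise as the enzyme cleaves BODIPY PC-A2 in liposomes; potency for inhibition of the enzyme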
[11] = biological target: T4, Zinc finger protein mex-5 (Caenorhabditis elegans, UniProt Q9XUB2); experiment: MEX-5/TCR-2 RNA interaction inhibitors, dose response, biochemical, C. elegans, fluorescence polarization (AID 1960)
T4 sequence (Q9XUB2 whole entry): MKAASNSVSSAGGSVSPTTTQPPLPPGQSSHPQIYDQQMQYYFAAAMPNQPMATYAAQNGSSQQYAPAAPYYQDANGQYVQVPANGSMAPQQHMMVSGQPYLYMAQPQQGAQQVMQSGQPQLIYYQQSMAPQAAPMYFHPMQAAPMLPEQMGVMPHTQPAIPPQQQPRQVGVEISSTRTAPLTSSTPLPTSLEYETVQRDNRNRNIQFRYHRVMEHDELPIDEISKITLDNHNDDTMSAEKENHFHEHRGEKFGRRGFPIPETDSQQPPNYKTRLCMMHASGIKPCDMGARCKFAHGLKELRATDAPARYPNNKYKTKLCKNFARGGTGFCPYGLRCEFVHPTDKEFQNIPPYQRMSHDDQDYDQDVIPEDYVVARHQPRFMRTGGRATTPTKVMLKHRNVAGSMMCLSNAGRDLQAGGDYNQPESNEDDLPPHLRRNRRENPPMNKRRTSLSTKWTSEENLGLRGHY

Leucine aminopeptidase = biological target: T5, Leucine aminopeptidase (Plasmodium falciparum 3D7, UniProt Q8IL11); experiment: P. falciparum M17LAP inhibitors, primary screen, biochemical, fluorogenic H-Leu-NHMec substrate, 1536-well (AID 1619); assay type: functional
T5 sequence (Q8IL11 whole entry): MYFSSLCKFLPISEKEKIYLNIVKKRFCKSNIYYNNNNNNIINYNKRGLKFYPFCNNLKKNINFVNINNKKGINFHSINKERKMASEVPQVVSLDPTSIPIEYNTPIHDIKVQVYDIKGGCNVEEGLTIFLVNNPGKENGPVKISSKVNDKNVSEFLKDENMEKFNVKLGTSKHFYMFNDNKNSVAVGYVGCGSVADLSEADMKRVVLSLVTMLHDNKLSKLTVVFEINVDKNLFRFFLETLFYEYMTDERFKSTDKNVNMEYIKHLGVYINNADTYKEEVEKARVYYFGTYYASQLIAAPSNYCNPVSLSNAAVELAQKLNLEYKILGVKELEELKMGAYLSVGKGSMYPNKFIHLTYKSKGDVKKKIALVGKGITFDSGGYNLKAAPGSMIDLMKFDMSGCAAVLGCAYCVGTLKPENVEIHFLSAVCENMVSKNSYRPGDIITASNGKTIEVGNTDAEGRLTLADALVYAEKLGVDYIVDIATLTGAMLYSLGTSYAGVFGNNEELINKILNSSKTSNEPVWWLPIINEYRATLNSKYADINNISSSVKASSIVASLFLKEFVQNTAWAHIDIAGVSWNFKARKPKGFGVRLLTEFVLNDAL

[12] = Escherichia coli growth inhibition, dose response, counter-screen for MEX-5/POS-1 RNA-binding inhibitor project, luminescence, NEB5alpha (AID 1959); assay type: functional
Nonstructural protein 1 = Nonstructural protein 1 (Influenza A virus, UniProt Q194T2); assay type: functional, Influenza A virus (A/California/07/2009(H1N1))
Nonstructural protein 1, sequence (Q194T2 whole entry, the tested form may be a part): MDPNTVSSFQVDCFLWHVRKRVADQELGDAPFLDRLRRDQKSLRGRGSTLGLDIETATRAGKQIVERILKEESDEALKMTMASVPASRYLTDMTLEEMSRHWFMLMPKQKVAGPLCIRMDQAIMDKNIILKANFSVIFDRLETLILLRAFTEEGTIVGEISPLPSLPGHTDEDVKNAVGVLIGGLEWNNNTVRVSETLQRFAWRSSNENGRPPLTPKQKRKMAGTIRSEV

[13] = biological target: T6, RNA-binding protein pos-1 (Caenorhabditis elegans, UniProt G5EF15); experiment: inhibitors of POS-1/mex-3 RNA binding, dose response, biochemical, fluorescence polarization (AID 1964);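 also: purified POS-1 fused to maltose binding protein made in E. coli; potency of compounds blocking POS-1 binding to fluorescent RNA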
T6 sequence (G5EF15 whole entry): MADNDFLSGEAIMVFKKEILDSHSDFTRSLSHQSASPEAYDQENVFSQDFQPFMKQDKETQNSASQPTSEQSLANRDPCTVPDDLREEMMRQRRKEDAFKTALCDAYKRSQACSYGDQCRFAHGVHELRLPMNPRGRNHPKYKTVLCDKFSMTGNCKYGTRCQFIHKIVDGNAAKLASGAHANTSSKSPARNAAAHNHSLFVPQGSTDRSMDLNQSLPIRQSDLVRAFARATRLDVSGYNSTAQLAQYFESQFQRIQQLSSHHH

[14] = biological target: Voltage-gated inwardly rectifying potassium channel KCNH2 (Homo sapiens, UniProt Q12809); experiment: hERG protection from proarrhythmic block, potency, dose response, cell-based, thallium flux (AID 2121); assay type: ADME
Voltage-gated inwardly rectifying potassium channel KCNH2, sequence (Q12809 whole entry): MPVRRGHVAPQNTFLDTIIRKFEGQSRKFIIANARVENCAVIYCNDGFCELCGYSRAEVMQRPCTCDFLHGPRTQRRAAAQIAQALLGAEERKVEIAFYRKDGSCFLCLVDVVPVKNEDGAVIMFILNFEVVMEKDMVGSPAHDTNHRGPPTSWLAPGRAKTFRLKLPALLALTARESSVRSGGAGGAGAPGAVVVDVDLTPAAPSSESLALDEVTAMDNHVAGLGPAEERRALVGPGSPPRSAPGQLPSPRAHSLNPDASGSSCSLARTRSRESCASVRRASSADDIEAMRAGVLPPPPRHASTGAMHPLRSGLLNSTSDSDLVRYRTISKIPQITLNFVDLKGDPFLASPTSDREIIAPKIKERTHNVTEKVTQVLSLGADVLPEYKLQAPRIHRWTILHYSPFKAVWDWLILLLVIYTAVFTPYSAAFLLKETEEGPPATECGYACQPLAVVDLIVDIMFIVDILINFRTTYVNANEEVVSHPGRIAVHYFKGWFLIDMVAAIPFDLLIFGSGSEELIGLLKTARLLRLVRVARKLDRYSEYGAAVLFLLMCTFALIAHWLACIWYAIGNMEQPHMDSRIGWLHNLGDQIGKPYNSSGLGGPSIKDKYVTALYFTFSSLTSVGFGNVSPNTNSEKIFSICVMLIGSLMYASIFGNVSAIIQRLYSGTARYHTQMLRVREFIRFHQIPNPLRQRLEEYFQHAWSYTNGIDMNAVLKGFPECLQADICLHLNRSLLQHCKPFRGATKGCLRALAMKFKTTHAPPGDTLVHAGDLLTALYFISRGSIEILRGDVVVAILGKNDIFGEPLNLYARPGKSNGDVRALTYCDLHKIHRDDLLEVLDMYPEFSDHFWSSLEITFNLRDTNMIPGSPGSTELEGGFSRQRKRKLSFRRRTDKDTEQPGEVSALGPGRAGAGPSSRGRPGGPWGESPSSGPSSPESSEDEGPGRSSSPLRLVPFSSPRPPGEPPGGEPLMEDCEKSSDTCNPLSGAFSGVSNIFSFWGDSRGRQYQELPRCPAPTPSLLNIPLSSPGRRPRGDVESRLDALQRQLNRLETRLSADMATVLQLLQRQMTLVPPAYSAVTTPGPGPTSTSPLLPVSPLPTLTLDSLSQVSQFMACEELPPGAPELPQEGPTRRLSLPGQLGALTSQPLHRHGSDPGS

Streptococcus = experiment: Group A Streptococcus viability loss, dose response, counter-screen for streptokinase expression inhibitor project, luminescence, BacTiterGlo (AID 1915); assay type: functional, organism-based;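 also: potency for reduction of bacterial viability or growth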
[15] = test system: Streptococcus sp. 'group A'; experiment: growth inhibition of control SK(-) GAS strain, dose response, counter-screen for streptokinase expression inhibitor project, luminescence, kanamycin, BacTiterGlo, confirmation (AID 1900); assay type: functional, organism-based
Protein skinhead-1 = biological target: T7, Protein skinhead-1 (Caenorhabditis elegans, UniProt P34707); assay type: functional
T7 sequence (P34707 whole entry): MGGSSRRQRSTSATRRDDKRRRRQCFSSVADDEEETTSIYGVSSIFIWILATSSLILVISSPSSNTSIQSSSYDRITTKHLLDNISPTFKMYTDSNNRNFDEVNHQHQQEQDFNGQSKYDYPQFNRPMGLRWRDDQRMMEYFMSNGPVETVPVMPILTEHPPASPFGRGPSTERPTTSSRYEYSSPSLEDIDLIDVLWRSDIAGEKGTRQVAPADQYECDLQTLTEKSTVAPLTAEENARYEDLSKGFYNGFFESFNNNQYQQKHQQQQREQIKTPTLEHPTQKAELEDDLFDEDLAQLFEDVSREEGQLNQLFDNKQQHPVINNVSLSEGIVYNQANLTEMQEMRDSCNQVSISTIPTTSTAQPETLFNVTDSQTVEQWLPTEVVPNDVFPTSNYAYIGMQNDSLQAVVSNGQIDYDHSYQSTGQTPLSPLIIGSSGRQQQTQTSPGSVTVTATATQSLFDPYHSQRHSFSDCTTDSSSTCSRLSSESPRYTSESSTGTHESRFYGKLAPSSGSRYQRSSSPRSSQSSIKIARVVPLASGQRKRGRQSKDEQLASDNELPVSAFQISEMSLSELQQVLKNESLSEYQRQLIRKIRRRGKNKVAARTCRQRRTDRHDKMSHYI

Bcl-2-related protein A1 [16] = biological target: T8, Bcl-2-related protein A1 (Mus musculus, UniProt Q07440); experiment: Bfl-1 binding inhibitors, SAR follow-up, biochemical, fluorescence polarization (AID 1070)
T8 sequence (Q07440 whole entry): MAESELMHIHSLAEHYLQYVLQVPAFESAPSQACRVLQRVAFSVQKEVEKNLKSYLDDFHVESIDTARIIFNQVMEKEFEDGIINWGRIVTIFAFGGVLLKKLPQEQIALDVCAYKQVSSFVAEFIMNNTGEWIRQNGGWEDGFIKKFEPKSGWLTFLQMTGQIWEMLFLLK

Bcl-2-related protein A1 [17] = biological target: T8, Bcl-2-related protein A1; experiment: Bfl-1 inhibitors blocking BH3 peptide binding, confirmation, biochemical, TR-FRET, mouse Bfl-1 (AID 621);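 also: TR-FRET binding of GST-Bfl-1 to FITC-labelled Bid peptide via terbium antibody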
[18] = HepG2 cell cytotoxicity, dose response, cytotoxicity control for non-replicating M. tuberculosis project (AID 489018); assay type: functional; details: Mycobacterium tuberculosis
Paired box protein Pax-8 = Paired box protein Pax-8 (Homo sapiens, UniProt Q06710); experiment: inhibitors of PAX8-driven TPO luciferase reporter, dose response, RMG-I cells, cherry-pick (AID 687027); assay type: functional, cell-based;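 also: luciferase reporter driven by Pax8 target thyroperoxidase promoter measured by SteadyGlo luminescence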
Paired box protein Pax-8, sequence (Q06710 whole entry): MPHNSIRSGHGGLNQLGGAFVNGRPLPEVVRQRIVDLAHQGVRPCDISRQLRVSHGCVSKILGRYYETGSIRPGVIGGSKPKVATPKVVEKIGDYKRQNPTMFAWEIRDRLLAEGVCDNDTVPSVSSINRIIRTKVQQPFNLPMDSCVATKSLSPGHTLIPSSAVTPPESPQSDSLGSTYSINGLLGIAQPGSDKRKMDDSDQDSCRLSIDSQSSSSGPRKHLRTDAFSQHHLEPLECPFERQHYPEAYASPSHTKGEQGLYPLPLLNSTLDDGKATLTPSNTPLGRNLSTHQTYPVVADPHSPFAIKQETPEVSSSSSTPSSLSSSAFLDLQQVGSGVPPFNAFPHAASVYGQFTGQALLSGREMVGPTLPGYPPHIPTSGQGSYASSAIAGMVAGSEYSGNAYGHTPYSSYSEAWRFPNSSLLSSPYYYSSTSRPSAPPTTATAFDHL

cells = assay type: functional
[19] = THP-1 cell cytotoxicity, dose response, cytotoxicity control for non-replicating M. tuberculosis project (AID 489025); assay type: functional
[20] = Luminescent dose response cell-based high throughput screening assay for inhibitors of the Janus kinase 2 mutant JAK2V617F. [Related pubchem assays: 1446 (Primary screen.), 1521 (Confirmation assay.), 1486 (Counter screen.)]; assay type: functional
[21] = Vero E6 cell cytotoxicity, dose response, cytotoxicity control for non-replicating M. tuberculosis project, secondary assay (AID 492998); assay type: functional, VeroE6; details: Vero C1008

O=C1Nc2ccc(F)cc2/C1=C1/Nc2ccccc2/C1=N\O
IC50 (Danio rerio): 0.38 µM (not active)

CCC(=O)Nc1cccc(NC(=O)c2ccccc2Cl)c1
EC50 [1]: 3.42 µM (active) | EC50 [2]: > 112 µM (not active) | EC50 [3]: < 30 µM (active)

CCOc1ccc(S(=O)(=O)N2CCCCCC2)c2ccccc12
EC50 (Mucolipin-3 [4]): 0.95 µM (active) | EC50 (Mucolipin-3 [5]): 1.03 µM (active) | EC50 (Ion channel NompC [6]): > 29.9 µM (not active) | EC50 (Ion channel NompC [7]): > 29.9 µM (not active)

CC[n+]1c(/C=C/c2ccc(N(C)C)cc2)ccc2ccccc21
CC50 [8]: 39.7 µM (active) | IC50 [9]: 46.6 µM (active) | IC50 [10]: 34 µM (inactive) | EC50 [11]: > 300 µM (not active) | IC50 (Leucine aminopeptidase): 110 µM (active) | EC50 [12]: 37.8 µM (active) | IC50 (Nonstructural protein 1): 18.9 µM (active) | EC50 [13]: > 300 µM (not active)

CCOc1ccc2nc(N3C(=O)/C(=C/c4ccc(Cl)cc4)NC3=S)sc2c1
EC50 [14]: 1.24 µM (active) | EC50 (Streptococcus): 0.855 µM (active) | EC50 [15]: 1.8 µM (active)

Fc1ccc(-n2nnc(-c3cccnc3)n2)cc1
IC50 (Protein skinhead-1): 17.4 µM (active) | IC50 (Bcl-2-related protein A1 [16]): > 100 µM (not active) | IC50 (Bcl-2-related protein A1 [17]): > 100 µM (not active)

CCOc1ccc(C(=O)C(CN2CCOCC2)c2ccccc2)cc1 (stereo not drawn)
CC50 [18]: 16.1 µM (active) | AC50 (Paired box protein Pax-8): 1.96 µM (active) | IC50 (cells): 10.3 µM (active) | CC50 [19]: 5.48 µM (active) | IC50 [20]: 0.73 µM (active) | CC50 [21]: 8.04 µM (active)

Reference: ChEMBL document CHEMBL1201862, “PubChem BioAssay data set” (2004)
